The values that follow come from ChEMBL document CHEMBL4043257, “PTP1B inhibitors from the seeds of Iris sanguinea and their insulin mimetic activities via AMPK and ACC phosphorylation” (Bioorg Med Chem Lett, 2017).

The structures appear in SMILES notation. Activity calls are given as the source filed them. The rule behind the calls is not given here.

In series [1] the target is T1, Tyrosine-protein phosphatase non-receptor type 1 (Homo sapiens, UniProt P18031).
T1 sequence (P18031 whole entry): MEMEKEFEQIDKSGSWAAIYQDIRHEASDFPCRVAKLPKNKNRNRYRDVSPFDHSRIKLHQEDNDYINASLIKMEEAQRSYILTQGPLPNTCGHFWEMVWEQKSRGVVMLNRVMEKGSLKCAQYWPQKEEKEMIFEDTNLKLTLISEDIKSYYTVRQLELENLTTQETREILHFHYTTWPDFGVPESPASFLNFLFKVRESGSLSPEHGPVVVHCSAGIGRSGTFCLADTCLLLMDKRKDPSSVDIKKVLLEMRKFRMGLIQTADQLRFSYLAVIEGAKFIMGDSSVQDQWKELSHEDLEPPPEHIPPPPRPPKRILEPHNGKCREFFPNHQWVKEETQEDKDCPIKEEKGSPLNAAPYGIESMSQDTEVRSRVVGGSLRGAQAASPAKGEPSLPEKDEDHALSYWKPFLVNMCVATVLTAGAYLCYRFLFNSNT
As to the kind of experiment: Inhibition of recombinant human PTP1B using pNPP as substrate after 30 mins.

Series [2] relates to C2C12. As to the kind of experiment: Cytotoxicity against mouse C2C12 cells assessed as reduction in cell viability at 20 uM after 24 hrs by MTT assay. In kind it is cell-based. As to conditions: c2c12, 24 h.
In series [3] the target is T2, Tyrosine-protein phosphatase non-receptor type 1 (Mus musculus) (UniProt P35821).
T2 sequence (whole entry): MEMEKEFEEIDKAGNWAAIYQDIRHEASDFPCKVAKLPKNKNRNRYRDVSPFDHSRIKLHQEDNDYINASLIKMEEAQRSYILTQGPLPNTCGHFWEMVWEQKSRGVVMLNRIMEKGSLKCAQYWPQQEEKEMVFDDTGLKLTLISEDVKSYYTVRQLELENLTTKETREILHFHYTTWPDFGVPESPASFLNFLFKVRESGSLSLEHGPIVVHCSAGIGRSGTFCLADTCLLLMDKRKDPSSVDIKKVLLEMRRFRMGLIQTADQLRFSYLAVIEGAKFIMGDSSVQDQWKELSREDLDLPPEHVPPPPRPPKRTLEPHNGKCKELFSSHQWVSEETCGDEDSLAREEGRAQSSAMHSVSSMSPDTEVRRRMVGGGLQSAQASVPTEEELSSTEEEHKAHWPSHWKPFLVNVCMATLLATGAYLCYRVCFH
As to the kind of experiment: Inhibition of PTP1B in differentiated mouse C2C12 cells assessed as upregulation of ACC phosphorylation at Ser-79 residue at 20 uM after 30 mins by Western blot assay.

The target of series [4] is T2, Tyrosine-protein phosphatase non-receptor type 1 (Mus musculus). The series can be described thus: Inhibition of PTP1B in differentiated mouse C2C12 cells assessed as upregulation of AMPKalpha phosphorylation at Thr-172 residue at 20 uM after 3 hrs by Western blot assay.
Series [5] has as its target Mitogen-activated protein kinase 1 and 3 (ERK2 and ERK1) (Mus musculus) (UniProt P63085+Q63844). As to the kind of experiment: Upregulation of ERK1/2 phosphorylation at p44 residue in differentiated mouse C2C12 cells at 10 to 20 uM preincubated for 2 hrs followed by insulin addition measured after 15 mins by Western blot assay.
The target of series [6] is T2, Tyrosine-protein phosphatase non-receptor type 1 (Mus musculus). As to the kind of experiment: Inhibition of PTP1B in differentiated mouse 3T3L1 cells assessed as increase in glucose uptake at 5 to 20 uM after 1 hr by 2-NBDG staining based fluorescence assay.
Series [7] shares this target. As to the kind of experiment: Inhibition of PTP1B in differentiated mouse 3T3L1 cells assessed as increase in glucose uptake at 20 uM after 1 hr by […] staining based fluorescence microscopic assay.
The target is the same in series [8]. The series can be described thus: Inhibition of PTP1B in differentiated mouse C2C12 cells assessed as upregulation of ACC phosphorylation at Ser-79 residue at 0.2 mM after 30 mins by Western blot assay.

Mitogen-activated protein kinase 1 and 3 (ERK2 and ERK1) (Mus musculus), sequence (P63085 whole entry, looked up): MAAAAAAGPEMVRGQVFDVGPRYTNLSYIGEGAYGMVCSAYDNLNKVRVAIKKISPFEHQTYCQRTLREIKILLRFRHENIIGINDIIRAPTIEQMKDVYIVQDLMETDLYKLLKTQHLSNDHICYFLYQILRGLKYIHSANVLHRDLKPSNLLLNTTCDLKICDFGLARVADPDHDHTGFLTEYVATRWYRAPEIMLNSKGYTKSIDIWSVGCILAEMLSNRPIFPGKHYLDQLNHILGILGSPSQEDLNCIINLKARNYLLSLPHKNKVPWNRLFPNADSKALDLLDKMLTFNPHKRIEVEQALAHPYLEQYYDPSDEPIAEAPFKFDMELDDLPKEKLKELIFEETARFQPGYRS
Mitogen-activated protein kinase 1 and 3 (ERK2 and ERK1) (Mus musculus), sequence (Q63844 whole entry, looked up): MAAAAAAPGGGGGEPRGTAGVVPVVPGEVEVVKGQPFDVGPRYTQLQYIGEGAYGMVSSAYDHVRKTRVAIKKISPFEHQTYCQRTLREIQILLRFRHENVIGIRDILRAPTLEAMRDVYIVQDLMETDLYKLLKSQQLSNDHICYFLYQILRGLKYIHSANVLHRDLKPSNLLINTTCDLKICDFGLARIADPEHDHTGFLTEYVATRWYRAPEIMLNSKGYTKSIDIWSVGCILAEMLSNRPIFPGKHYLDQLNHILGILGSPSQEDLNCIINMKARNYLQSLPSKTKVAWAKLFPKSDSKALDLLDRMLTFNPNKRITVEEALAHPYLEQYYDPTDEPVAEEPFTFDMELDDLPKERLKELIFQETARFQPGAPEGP

In the case of `C=C1CC/C=C(\COC(C)=O)CC[C@@H](C(C)C)[C@@H](O)[C@@H]1O`, the IC50 in series [1] amounted to 7.3 µM. Besides, in series [2], the Activity entry is recorded as “Non-Toxic”. The inhibition entry in series [3], in series [6] and in series [7] was “Active” in each case. In addition, the inhibition entry in series [4] is “inactive”. Further, in series [5], the result was Active.
In the case of `C=C(C)C1=CC[C@@]2(C)[C@H]1[C@H]1CC[C@@H]3[C@@]4(C)CC[C@H](OC(=O)CCCCCCCCCCCCCCC)C(C)(C)[C@@H]4CC[C@@]3(C)[C@]1(C)C[C@@H]2O`, the IC50 in series [1] is 23.6 µM. The Activity entry in series [2] is reported as “Non-Toxic”. Also, the inhibition result in series [6] and in series [7] was “Active” each time.
On to `NC(=O)c1ncn([C@@H]2O[C@H](CO)[C@@H](O)[C@H]2O)c1N`, for which the inhibition result in series [8] is “Active”.
For `CC1(C)[C@@H]2CC(=O)[C@@]1(C)C[C@@H]2O`, the IC50 in series [1] came to 17.6 µM.
Same read-out and setting: the figure for `CC1(C)C[C@@H]2C[C@](C)(O)C(=O)C=C1O2` is 27 µM.
